Reference: patent US20080261918A1, “Silicon Compounds and Their Use” (priority 2003, published 2008)

Biological target: T1, human GnRH receptors (Homo sapiens, UniProt P30968)
T1 construct: expressed in transfected cells; host or cells: CHO-K1
T1 sequence (P30968 1-328): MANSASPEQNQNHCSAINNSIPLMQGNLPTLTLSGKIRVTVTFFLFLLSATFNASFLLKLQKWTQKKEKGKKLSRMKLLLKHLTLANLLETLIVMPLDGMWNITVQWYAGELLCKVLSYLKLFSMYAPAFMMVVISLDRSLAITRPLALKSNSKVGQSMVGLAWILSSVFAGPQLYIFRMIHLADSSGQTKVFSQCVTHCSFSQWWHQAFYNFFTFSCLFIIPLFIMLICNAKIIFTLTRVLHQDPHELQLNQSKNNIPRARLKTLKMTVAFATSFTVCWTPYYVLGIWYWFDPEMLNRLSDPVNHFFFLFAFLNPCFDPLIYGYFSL
Assay: Human GnRH receptor functional assay (intracellular calcium release)
Assay type: cell-based
Details: CHO-K1 cells expressing human GnRH receptors; block of GnRH (EC80)-induced calcium release; 20 min preincubation
Method: Human GnRH Receptor Functional Assay
GnRH-receptor antagonists may be functionally assessed by measurement of change in intracellular calcium levels induced by Gαq mediated increase in IP3 levels. The ability of compounds to block the intracellular release of calcium by GnRH in CHO-K1 cells expressing human GnRH receptors is determined as a measure of the compound's antagonist activity in vitro. Approximately 30,000 cells per assay well (half well 96 well assay plate—Corning) are seeded in normal culture medium. Twenty four hours after seeding the cells are loaded with a calcium sensitive fluorescent dye by replacing the culture medium with assay buffer (1×Hanks buffered saline, 25 mM HEPES, 0.1% w/v fatty acid free BSA, pH7.4) containing 2.5 mM probenecid and 1×Calcium Plus reagent (Molecular) Devices. Cells are incubated at 37° C. for 1 hour to allow for dye uptake. […] After incubation with test compounds the assay plate is placed in a Flexstation II (Molecular Devices) and GnRH is added at the determined EC80 concentration (final). Ligand-dependent changes in intracellular calcium levels are determined by measuring changes in fluorescence of the dye at […] following excitation at 485 nm. Percentage inhibition curves are plotted using 4-parameter fit algorithm and IC50 values calculated for each compound.

IC50: 160 nM
SMILES: COc1nc(N2CCC(N(C)C)C2)nc(OC)c1NC(=O)c1ccc(Oc2cc([Si](C)(C)C)ccc2C)o1 (stereo not shown) [Example 2, N-(2-(3-(dimethylamino)pyrrolidin-1-yl)-4,6-dimethoxypyrimidin-5-yl)-5-(2-methyl-5-(trimethylsilyl)phenoxy)furan-2-carboxamide]
